Ki data for 17 compounds are collected here from US20210047304A1, “Bromodomain Inhibitors” (AbbVie Inc., priority 2016, published 2021).

This test has as its target BRD4 (BDI_K57-E168) (Homo sapiens, UniProt O60885). The test is described as follows: TR-FRET bromodomain binding assay, BRD4 BDI. Here is the method:
A time-resolved fluorescence resonance energy transfer (TR-FRET) assay was used to determine the affinities of compounds of the Examples listed in Table 1 for each bromodomain of BRD4. […] An Alexa647-labeled BET-inhibitor was used as the fluorescent probe in the assay.
Compound dilution series were prepared in DMSO via an approximately 3-fold serial dilution. Compound dilutions were added directly into white, low-volume assay plates (Perkin Elmer Proxiplate 384 Plus #6008280) using a Labcyte Echo in conjunction with Labcyte Access and Thermo Multidrop CombinL robotics. Compounds were then suspended in eight microliters (μL) of assay buffer (20 mM Sodium Phosphate, pH 6.0, 50 mM NaCl, 1 mM Ethylenediaminetetraacetic acid disodium salt dihydrate, 0.01% Triton X-100, 1 mM DL-Dithiothreitol) containing His-tagged bromodomain, Europium-conjugated anti-His antibody (Invitrogen PV5596) and Alexa-647-conjugated probe.
After a one-hour equilibration at room temperature, TR-FRET ratios were determined using an Envision multilabel plate reader (Ex 340, Em 495/520).
TR-FRET data were normalized to the means of 24 no-compound controls (“high”) and 8 controls containing 1 μM un-labeled probe (“low”). Percent inhibition was plotted as a function of compound concentration and the data were fit with the 4 parameter logistic equation to obtain IC50s. Inhibition constants (Ki) were calculated from the IC50s, probe Kd and probe concentration.
Compound dilution series for Compounds A-E were prepared in DMSO via an approximately 3-fold serial dilution from 0.47 mM to 7.8 nM.
Compound dilutions were added directly into white, low-volume assay plates (Perkin Elmer Proxiplate 384 Plus #6008280) using a Labcyte Echo in conjunction with Labcyte Access and Thermo Multidrop CombinL robotics. Compounds were then suspended in eight microliters (μL) of assay buffer (20 mM Sodium Phosphate, pH 6.0, 50 mM NaCl, 1 mM Ethylenediaminetetraacetic acid disodium salt dihydrate, 0.01% Triton X-100, 1 mM DL-Dithiothreitol) containing His-tagged bromodomain, Europium-conjugated anti-His antibody (Invitrogen PV5596) and Alexa-647-conjugated probe.
TR-FRET data were normalized to the means of 24 no-compound controls (“high”) and 8 controls containing 1 μM un-labeled probe (“low”). Percent inhibition was plotted as a function of compound concentration and the data were fit with the 4 parameter logistic equation to obtain IC50s. Inhibition constants (Ki) were calculated from the IC50s, probe Kd and probe concentration. Typical Z′ values were between 0.65 and 0.75. The minimum significant ratio was determined to evaluate assay reproducibility (Eastwood et al., (2006) J Biomol Screen, 11: 253-261). The MSR was determined to be 2.03 for BDI and 1.93 for BDII, and a moving MSR (last six run MSR overtime) for both BDI and BDII was typically <3.

`CC(=O)N[C@H]1CC[C@H](N(C)c2cc(=O)n(C)cc2-c2cc(C(C)(C)O)ccc2Oc2c(C)cc(F)cc2C)CC1` [Example 13, N-{trans-4-[{5-[2-(4-fluoro-2,6-dimethylphenoxy)-5-(2-hydroxypropan-2-yl)phenyl]-1-methyl-2-oxo-1,2-dihydropyridin-4-yl}(methyl)amino]cyclohexyl}acetamide] yielded a Ki of more than 13000 nM. For `COC(=O)N[C@H]1CC[C@H](Oc2cc(=O)n(C)cc2-c2cc(C(C)(C)O)cnc2Oc2c(C)cc(F)cc2C)CC1` [Example 5, methyl (trans-4-{[2′-(4-fluoro-2,6-dimethylphenoxy)-5′-(2-hydroxypropan-2-yl)-1-methyl-6-oxo[1,6-dihydro[3,3′-bipyridine]]-4-yl]oxy}cyclohexyl)carbamate] the value was 1960 nM. Turning to `COCC1(C(=O)N[C@H]2CC[C@H](Oc3cc(=O)n(C)cc3-c3cc(C(C)(C)O)ccc3Oc3c(C)cc(F)cc3C)CC2)CC1` [Example 70, N-[trans-4-({5-[2-(4-fluoro-2,6-dimethylphenoxy)-5-(2-hydroxypropan-2-yl)phenyl]-1-methyl-2-oxo-1,2-dihydropyridin-4-yl}oxy)cyclohexyl]-1-(methoxymethyl)cyclopropane-1-carboxamide], affinity was put at a Ki of 4100 nM. With `Cc1cc(F)cc(C)c1Oc1ccc(C(C)(C)O)cc1-c1cn(C)c(=O)cc1O[C@H]1CC[C@H](N2C(=O)COC2=O)CC1` [Example 82, 3-[trans-4-({5-[2-(4-fluoro-2,6-dimethylphenoxy)-5-(2-hydroxypropan-2-yl)phenyl]-1-methyl-2-oxo-1,2-dihydropyridin-4-yl}oxy)cyclohexyl]-1,3-oxazolidine-2,4-dione], the Ki was 1510 nM. The compound `CC(=O)NN[C@H]1CC[C@@H](Oc2cc(=O)n(C)cc2-c2cc(C(C)(C)O)ccc2Oc2c(C)cc(F)cc2C)CC1` [Example 99, N′-[cis-4-({5-[2-(4-fluoro-2,6-dimethylphenoxy)-5-(2-hydroxypropan-2-yl)phenyl]-1-methyl-2-oxo-1,2-dihydropyridin-4-yl}oxy)cyclohexyl]acetohydrazide] returned a Ki of 10400 nM.

In turn, `Cc1cc(F)cc(C)c1Oc1ccc(C(C)(C)O)cc1-c1cn(C)c(=O)cc1O[C@H]1CC[C@H](N2C(=O)c3ccccc3C2=O)CC1` [Example 43, 2-[trans-4-({5-[2-(4-fluoro-2,6-dimethylphenoxy)-5-(2-hydroxypropan-2-yl)phenyl]-1-methyl-2-oxo-1,2-dihydropyridin-4-yl}oxy)cyclohexyl]-1H-isoindole-1,3(2H)-dione] showed a Ki of more than 13000 nM. For the compound `Cc1cc(F)cc(C)c1Oc1ccc(C(C)(C)O)cc1-c1cn(C)c(=O)cc1O[C@H]1CC[C@H](N2CCC(C)(C)C2=O)CC1` [Example 48, 4-{[trans-4-(3,3-dimethyl-2-oxopyrrolidin-1-yl)cyclohexyl]oxy}-5-[2-(4-fluoro-2,6-dimethylphenoxy)-5-(2-hydroxypropan-2-yl)phenyl]-1-methylpyridin-2(1H)-one], the affinity, expressed as Ki, was 1790 nM. The value for `Cc1cc(F)cc(C)c1Oc1ccc(C(C)(C)O)cc1-c1cn(C)c(=O)cc1O[C@H]1CC[C@H](C(=O)N(C)C)CC1` [Example 108, trans-4-({5-[2-(4-fluoro-2,6-dimethylphenoxy)-5-(2-hydroxypropan-2-yl)phenyl]-1-methyl-2-oxo-1,2-dihydropyridin-4-yl}oxy)-N,N-dimethylcyclohexane-1-carboxamide] was 5440 nM; that for `CC(=O)NC1CCC(C)(Oc2cc(=O)n(C)cc2-c2cc(C(C)(C)O)ccc2Oc2c(C)cc(F)cc2C)CC1` (stereo not drawn) [Example 84, N-[trans-4-({5-[2-(4-fluoro-2,6-dimethylphenoxy)-5-(2-hydroxypropan-2-yl)phenyl]-1-methyl-2-oxo-1,2-dihydropyridin-4-yl}oxy)-4-methylcyclohexyl]acetamide] was more than 13000 nM; that for `Cc1cc(F)cc(C)c1Oc1ccc(C(C)(C)O)cc1-c1cn(C)c(=O)cc1O[C@H]1CC[C@H](N2CCCC2=O)CC1` [Example 24, 5-[2-(4-fluoro-2,6-dimethylphenoxy)-5-(2-hydroxypropan-2-yl)phenyl]-1-methyl-4-{[trans-4-(2-oxopyrrolidin-1-yl)cyclohexyl]oxy}pyridin-2(1H)-one] was 2860 nM. The value for `Cc1cc(F)cc(C)c1Oc1ccc(C(C)(C)O)cc1-c1cn(C)c(=O)cc1O[C@H]1CC[C@H](NC(=O)C(C)(C)CCCO)CC1` [Example 79, N-[trans-4-({5-[2-(4-fluoro-2,6-dimethylphenoxy)-5-(2-hydroxypropan-2-yl)phenyl]-1-methyl-2-oxo-1,2-dihydropyridin-4-yl}oxy)cyclohexyl]-5-hydroxy-2,2-dimethylpentanamide] was 2530 nM; that for `Cc1cc(F)cc(C)c1Oc1ccc(C(C)(C)O)cc1-c1cn(C)c(=O)cc1O[C@H]1CC[C@H](C(=O)O)CC1` [Example 61, trans-4-({5-[2-(4-fluoro-2,6-dimethylphenoxy)-5-(2-hydroxypropan-2-yl)phenyl]-1-methyl-2-oxo-1,2-dihydropyridin-4-yl}oxy)cyclohexane-1-carboxylic acid] was 12200 nM. Regarding `CC(=O)N(N)[C@H]1CC[C@H](Oc2cc(=O)n(C)cc2-c2cc(C(C)(C)O)ccc2Oc2c(C)cc(F)cc2C)CC1` [Example 98, N-[trans-4-({5-[2-(4-fluoro-2,6-dimethylphenoxy)-5-(2-hydroxypropan-2-yl)phenyl]-1-methyl-2-oxo-1,2-dihydropyridin-4-yl}oxy)cyclohexyl]acetohydrazide], affinity was put at a Ki of 1140 nM. With `CC(=O)N1CCC(Nc2cc(=O)n(C)cc2-c2cc(C(C)(C)O)ccc2Oc2c(C)cccc2C)C1` (centres unmarked) [Example 14, 4-[(1-acetylpyrrolidin-3-yl)amino]-5-[2-(2,6-dimethylphenoxy)-5-(2-hydroxypropan-2-yl)phenyl]-1-methylpyridin-2(1H)-one], affinity was put at a Ki of 1550 nM. The value for `Cc1cc(F)cc(C)c1Oc1ccc(C(C)(C)O)cc1-c1cn(C)c(=O)cc1O[C@H]1CC[C@H](NC(=O)CCO)CC1` [Example 49, N-[trans-4-({5-[2-(4-fluoro-2,6-dimethylphenoxy)-5-(2-hydroxypropan-2-yl)phenyl]-1-methyl-2-oxo-1,2-dihydropyridin-4-yl}oxy)cyclohexyl]-3-hydroxypropanamide] was 2530 nM; that for `Cc1cc(F)cc(C)c1Oc1ccc(C(C)(C)O)cc1-c1cn(C)c(=O)cc1O[C@H]1CC[C@H](n2nccc2O)CC1` [Example 114, 5-[2-(4-fluoro-2,6-dimethylphenoxy)-5-(2-hydroxypropan-2-yl)phenyl]-4-{[trans-4-(5-hydroxy-1H-pyrazol-1-yl)cyclohexyl]oxy}-1-methylpyridin-2(1H)-one] was 4660 nM; that for `CC(=O)NC12CCC(C(=O)N[C@H]3CC[C@H](Oc4cc(=O)n(C)cc4-c4cc(C(C)(C)O)ccc4Oc4c(C)cc(F)cc4C)CC3)(C1)C2` (relative stereo) [Example 137, 4-acetamido-N-[trans-4-({5-[2-(4-fluoro-2,6-dimethylphenoxy)-5-(2-hydroxypropan-2-yl)phenyl]-1-methyl-2-oxo-1,2-dihydropyridin-4-yl}oxy)cyclohexyl]bicyclo[2.1.1]hexane-1-carboxamide] was 1800 nM.
